Here are results for 2 compounds from patent publication US20240358779A1, “EXTRACELLULAR VESICLES DERIVED FROM LACTOBACILLUS BACTERIA, AND USE THEREOF” (MD HEALTHCARE INC., priority 2021, published 2024).

In this assay the test system is AMPK. Kind of assay: AMPK phosphorylation (pAMPK) in myocytes (Western blotting). Type of assay: cell-based. An excerpt:
During fasting or exercising, myocytes are depleted of energy, which causes a decrease in ATP production and an increase in AMP production. It is well known that, in this case, cells activate AMPK signaling to increase cellular homeostasis against metabolic stress. To evaluate a metabolic function regulating effect of Lactobacillus bacteria-derived vesicles, myocytes were each treated with Lactobacillus paracasei-derived vesicles (MDH-001-CM) and Lactobacillus rhamnosus-derived vesicles (MDH-003-CM) at concentrations of 0, 0.1, 1, and 10 μg/ml for 1 hour. Afterwards, the degree of AMPK phosphorylation (pAMPK), an indicator of AMPK signaling, was measured by Western blotting. As control drugs, 1 μM insulin and 50 mM metformin were used.

Consider insulin, for which the “phosphorylation of AMPK (pAMPK)” value (1 μM insulin) is recorded as “inhibited”.
With `CN(C)C(=N)N=C(N)N` [metformin], the “phosphorylation of AMPK (pAMPK)” value (50 mM metformin) was “increased”.
